# US20090275648A1, “MACROCYCLIC GHRELIN RECEPTOR ANTAGONISTS AND INVERSE AGONISTS AND METHODS OF USING THE SAME” (priority 2005, published 2009)
# Experiments:
# ghrelin receptor [1] = target: T1, ghrelin receptor (Homo sapiens, UniProt Q92847); test: Aequorin functional assay (ghrelin receptor), Example 3; assay type: cell-based; design: host or cells: CHO-K1 cells co-expressing Gα16 and mitochondrially targeted Aequorin; conditions: for IC50: antagonist testing vs ghrelin at EC80 (3.7 nM)
# Source text: The functional activity of compounds of the invention found to bind to the GHS-R1a receptor can be determined using the method described below. (LePoul, E.; et al. Adaptation of aequorin functional assay to high throughput screening. J. Biomol. Screen. 2002, 7, 57-65; Bednarek, M. A.; et al. Structure-function studies on the new growth hormone-releasing peptide ghrelin: minimal sequence of ghrelin necessary for activation of growth hormone secretagogue receptor 1a. J. Med. Chem. 2000, 43, 4370-4376; Palucki, B. L.; et al. Spiro(indoline-3,4′-piperidine) growth hormone secretagogues as ghrelin mimetics. Bioorg. Med. Chem. Lett. 2001, 11, 1955-1957).
# Membranes were prepared using AequoScreen™ (EUROSCREEN, Belgium) cell lines expressing the human ghrelin receptor (cell line ES-410-A; receptor accession #60179). This cell line is constructed by transfection of the human ghrelin receptor into CHO-K1 cells co-expressing Gα16 and the mitochondrially targeted Aequorin (Ref #ES-WT-A5). • 1. Ghrelin (reference agonist; Bachem, #H-4864) • 2. Assay buffer: DMEM (Dulbecco's Modified Eagles Medium) containing 0.1% BSA (bovine serum albumin; pH 7.0. • 3. Coelenterazine (Molecular Probes, Leiden, The Netherlands)
# Stock solutions of compounds (10 mM in 100% DMSO) were provided frozen on dry ice and stored at −20° C. prior to use. From the stock solution, mother solutions were made at a concentration of 500 μM 20-fold dilution in 26% DMSO. Assay plates were then prepared by appropriate dilution in DMEM medium containing 0.1% BSA. Under these conditions, the maximal final DMSO concentration in the assay was <0.6%.
# AequoScreen™ cells were collected from culture plates with Ca^2+ and Mg^2+-free phosphate buffered saline (PBS) supplemented with 5 mM EDTA, pelleted for 2 minutes at 1000×g, re-suspended in DMEM-Ham's F12 containing 0.1% BSA at a density of 5×10^6 cells/ml and incubated overnight at room temperature in the presence of 5 μM coelenterazine. After loading, cells were diluted with assay buffer to a concentration of 5×10^5 cells/ml.
# For agonist testing, 50 μl of the cell suspension was mixed with 50 μl of the appropriate concentration of test compound or ghrelin (reference agonist) in 96-well plates (duplicate samples). Ghrelin (reference agonist) is tested at several concentrations concurrently with the test compounds in order to validate the experiment. The emission of light resulting from receptor activation in response to ghrelin or test compounds was recorded using the Hamamatsu FDSS 6000 reader (Hamamatsu Photonics K.K., Japan).
# For antagonist testing, an approximate EC80 concentration of ghrelin (i.e. 3.7 nM; 100 μL) was injected onto the cell suspension containing the test compounds (duplicate samples) 15-30 minutes after the end of agonist testing and the consequent emission of light resulting from receptor activation was measured as described in the paragraph above.
# Results are expressed as Relative Light Units (RLU). […] For agonist testing, results for each concentration of test compound were expressed as percent activation relative to the signal induced by ghrelin at a concentration equal to the EC80 (i.e. 3.7 nM). EC50, Hill slope and % Emax values are reported.
# For antagonist testing, results for each concentration of test compound were expressed as percent inhibition relative to the signal induced by ghrelin at a concentration equal to the EC80.
# [2] = target: T2, human ghrelin receptor (hGHS-R1a) (Homo sapiens, UniProt Q92847); test: Competitive radioligand binding assay (ghrelin receptor), [125I]-ghrelin, GHS-R/HEK 293 membranes; conditions: competition with [125I]-ghrelin
# T2 construct: purchased PerkinElmer BioSignal #RBHGHSM, lot#1887; host or cells: HEK-293 cells, stably transfected; membranes
# T2 sequence (Q92847 whole entry): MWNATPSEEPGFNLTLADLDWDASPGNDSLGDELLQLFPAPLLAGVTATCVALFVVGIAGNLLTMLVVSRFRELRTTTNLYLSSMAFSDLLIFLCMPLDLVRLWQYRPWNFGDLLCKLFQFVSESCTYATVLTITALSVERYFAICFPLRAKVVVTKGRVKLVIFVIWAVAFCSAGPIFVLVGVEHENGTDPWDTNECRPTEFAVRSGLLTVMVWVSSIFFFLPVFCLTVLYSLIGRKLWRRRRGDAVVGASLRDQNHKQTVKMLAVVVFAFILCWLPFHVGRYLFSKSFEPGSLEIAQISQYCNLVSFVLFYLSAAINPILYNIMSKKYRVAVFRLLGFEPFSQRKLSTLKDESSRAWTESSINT
# Experimental: The competitive binding assay at the human growth hormone secretagogue receptor (HGHS-R1a) was carried out analogously to assays described in the literature. (Bednarek M A et al. Structure-function studies on the new growth hormone-releasing peptide ghrelin: minimal sequence of ghrelin necessary for activation of growth hormone secretagogue receptor 1a; J. Med. Chem. 2000, 43, 4370-4376; Palucki, B. L. et al. Spiro(indoline-3,4′-piperidine) growth hormone secretagogues as ghrelin mimetics; Bioorg. Med. Chem. Lett. […], 11, 1955-1957).
# Membranes (GHS-R/HEK 293) were prepared from HEK-293 cells stably transfected with the human ghrelin receptor (hGHS-R1a). These membranes were provided by PerkinElmer BioSignal (#RBHGHSM, lot#1887) and utilized at a quantity of 0.71 μg/assay point. • 1. [^125]-Ghrelin (PerkinElmer, #NEX-388); final concentration: 0.0070-0.0085 nM • 2. […] Multiscreen Harvest plates-GF/C (Millipore, #MAHFC1H60) • 4. Deep-well polypropylene titer plate (Beckman Coulter, #267006) • 5. TopSeal-A (PerkinElmer, #6005185) • 6. Bottom seal (Millipore, #MATAH0P00) • 7. MicroScint-0 (PerkinElmer, #6013611) • 8. Binding Buffer: 25 mM Hepes (pH 7.4), 1 mM CaCl2, 5 mM MgCl2, 2.5 mM EDTA, 0.4% BSA
# Competition experiments were performed in a 300 μl filtration assay format. • 1. 220 μL of membranes diluted in binding buffer • 2. 40 μL of compound diluted in binding buffer • 3.
# Compounds were provided frozen on dry ice at a stock concentration of 10 mM diluted in 100% DMSO and stored at −80° C. until the day of testing. On the test day, compounds were allowed to thaw at rt overnight and then diluted in assay buffer according to the desired test concentrations. Under these conditions, the maximal final DMSO concentration in the assay was 0.1%.
# In deep-well plates, 220 μL of diluted cell membranes (final concentration: 0.71 μg/well) were combined with 40 μL of either binding buffer (total binding, N=5), 1 μM ghrelin (non-specific binding, N=3) or the appropriate concentration of test compound N=2 for each test concentration). […] Plates were sealed with TopSeal-A, vortexed gently and incubated at rt for 30 min. The reaction was arrested by filtering samples through Multiscreen Harvest plates (pre-soaked in 0.5% polyethyleneimine) using a Tomtec Harvester, washed 9 times with 500 μL of cold 50 mM Tris-HCl (pH 7.4, 4° C.), and then plates were air-dried in a fumehood for 30 min. A bottom seal was applied to the plates prior to the addition of 25 μL of MicroScint-0 to each well. Plates were than sealed with TopSeal-A and counted for 30 sec per well on a TopCount Microplate Scintillation and Luminescence Counter (PerkinElmer) using a count delay of 60 sec. Results were expressed as counts per minute (cpm).
# Data were analyzed by GraphPad Prism (GraphPad Software, San Diego, Calif.) using a variable slope non-linear regression analysis.
# Dmax values were calculated using the following formula: […]
# where total and non-specific binding represent the cpm obtained in the absence or presence of 1 μM ghrelin, respectively.
# ghrelin receptor [3] = target: T1, ghrelin receptor; test: Inverse agonist assay, Example 4; assay type: cell-based; conditions: inverse agonist activity
# Source text: The inverse agonist activity at the ghrelin receptor for compounds of the invention can be determined using the methods described in Intl. Pat. Appl. Publ. No. WO 2004/056869 and Holst, B.; Cygankiewicz, A.; Halkjaer, T.; Ankersen, A.; Schwartz, T. W. High constitutive signaling of the ghrelin receptor—identification of a potent inverse agonist. Mol. Endocrinol. 2003, 17, 2201-2210.
# T1 sequence (Q92847 whole entry): as above
IC50 (ghrelin receptor [1]),Ki [2],IC50 (ghrelin receptor [3]),"receptor activation (agonist activity) (ghrelin receptor [1]; agonist testing, in comparison to known ghrelin agonists)",SMILES
100 to 1500 nM,100 to 1000 nM,100 to 1000 nM,–,CC(O)[C@H]1C(=O)N[C@H](Cc2ccc(F)cc2)C(=O)NCCCc2ccccc2O[C@H](C)CN[C@@H](C2CC2)C(=O)N1C (stereo partly drawn) [Compound 505]
–,100 to 1000 nM,–,–,CCC(C)[C@@H]1NCCOc2ccccc2CCCNC(=O)[C@@H](Cc2ccccc2)NC(=O)[C@@H](C)NC1=O (stereo partly drawn) [Compound 2]
–,1000 to 10000 nM,–,–,CCC(C)[C@@H]1NCCOc2ccccc2CCCNC(=O)[C@@H](Cc2ccccc2)NC(=O)[C@@H](COC(C)(C)C)NC1=O (stereo partly drawn) [Compound 215]
100 to 1500 nM,1 to 100 nM,–,–,CCC(C)[C@@H]1NCCOc2ccccc2/C=C\CNC(=O)[C@@H](Cc2ccc(F)cc2)NC(=O)[C@H](C(C)O)N(C)C1=O (stereo partly drawn) [Compound 508]
–,1000 to 10000 nM,–,–,CC(C)C[C@@H]1NCCOc2ccccc2CCCNC(=O)[C@H](Cc2ccccc2)NC(=O)[C@H](C)NC1=O [Compound 93]
–,1000 to 10000 nM,–,–,CCC[C@@H]1NCCOc2ccccc2CCCNC(=O)[C@@H](Cc2ccccc2)NC(=O)[C@H](C)NC1=O [Compound 59]
–,100 to 1000 nM,–,–,CCC[C@@H]1NCCOc2ccccc2CCCNC(=O)[C@@H](Cc2ccccc2)NC(=O)[C@H](C)N(C)C1=O [Compound 79]
1 to 100 nM,1 to 100 nM,100 to 1000 nM,–,CCC(C)[C@@H]1NCCOc2ccccc2/C=C/CNC(=O)[C@@H](Cc2ccc(F)cc2)NC(=O)[C@H](C(C)O)N(C)C1=O (stereo partly drawn) [Compound 504]
–,100 to 1000 nM,–,–,CCC(C)[C@@H]1NCCOc2ccccc2CCCNC(=O)[C@@H](Cc2ccc(F)cc2)NC(=O)[C@@H](COCc2ccccc2)N(C)C1=O (stereo partly drawn) [Compound 501]
100 to 1500 nM,100 to 1000 nM,> 10000 nM,–,CCC(C)[C@@H]1NCCOc2ccccc2CCCNC(=O)[C@@H](Cc2ccccc2)NC(=O)[C@H](CCO)N(C)C1=O (stereo partly drawn) [Compound 506]
–,1000 to 10000 nM,–,–,CC(C)C[C@@H]1NCCOc2ccccc2CCCNC(=O)[C@H](Cc2ccccc2)NC(=O)[C@@H](C)NC1=O [Compound 94]
–,100 to 1000 nM,–,–,CCC(C)[C@@H]1NCCOc2ccccc2/C=C/CNC(=O)[C@H](Cc2ccccc2)NC(=O)[C@@H](C)NC1=O (stereo partly drawn) [Compound 14]
100 to 1500 nM,100 to 1000 nM,> 10000 nM,no receptor activation,CCC(C)[C@@H]1NCCOc2ccccc2CCCNC(=O)[C@@H](Cc2ccccc2)NC(=O)[C@@H](CO)N(C)C1=O (stereo in doubt) [Compound 152]
> 1500 nM,100 to 1000 nM,–,–,CC[C@@H](C)[C@H]1NCCOc2ccccc2CCCNC(=O)[C@@H](Cc2ccccc2)NC(=O)[C@H]([C@H](C)O)N(C)C1=O [Compound 509]
1 to 100 nM,1 to 100 nM,100 to 1000 nM,–,CCC(C)[C@@H]1NCCOc2ccccc2CCCNC(=O)[C@@H](Cc2ccccc2)NC(=O)[C@H](C(C)O)N(C)C1=O (stereo partly drawn) [Compound 503]
–,100 to 1000 nM,–,–,CCC[C@@H]1NCCOc2ccccc2CCCNC(=O)[C@@H](Cc2ccccc2)NC(=O)[C@@H](C)NC1=O [Compound 60]
–,1000 to 10000 nM,–,–,CCC(C)[C@@H]1NCCOc2ccccc2CCCNC(=O)[C@@H](Cc2ccccc2)NC(=O)[C@@H](CO)NC1=O (stereo partly drawn) [Compound 151]
